In patent US20250163052A1, “cGAS INHIBITORS AND USES THEREOF” (Cornell University, priority 2022, published 2025):

How the values were obtained:
[1] = test system: THP1 cells; assay: THP1-Dual cells, cell viability (CellTiter-Glo); assay type: cell-based
Procedure: (§1) Evaluation of active cGAS inhibitors in THP1 cells (Table 3). Cellular activity of all compounds (in Table 3) was determined using THP1-Dual™ cells as described (Lama et. al., 2019). THP1-Dual™ cells (Invivogen) (50000 cells in 100 μl media) were seeded into each well of a 96-well plate and treated with compounds at various dilution for 4 hours. Subsequently, cells were transfected with DNA (2 ug/ml) and lipofectamine and incubate the cells were incubated overnight. Ifnb expression was measured in cell supernatant using Quantiluc, nfkb expression was determined using Quantiblue, and cell viability using Promega® CellTiter-Glo®.

[2] = test system: IFNB; assay: THP1-Dual cells transfected with DNA, Ifnb expression (Quantiluc); assay type: cell-based; conditions: Homo sapiens; for inhibition at 10 µM: THP-1, 10 μM; for inhibition at 30 µM: THP-1, 30 μM
Procedure: as §1

[3] = target: h-cGAS (Homo sapiens, UniProt Q8N884); assay: Cell-free human cGAS enzyme inhibition assay (ATP depletion, Kinase-Glo Max); assay type: biochemical; conditions: 3 h; for inhibition at 1 µM: read-out: h-cGAS, conc. 1 μM; for inhibition at 10 µM: read-out: h-cGAS, conc. 10 μM
h-cGAS, sequence (Q8N884 whole entry): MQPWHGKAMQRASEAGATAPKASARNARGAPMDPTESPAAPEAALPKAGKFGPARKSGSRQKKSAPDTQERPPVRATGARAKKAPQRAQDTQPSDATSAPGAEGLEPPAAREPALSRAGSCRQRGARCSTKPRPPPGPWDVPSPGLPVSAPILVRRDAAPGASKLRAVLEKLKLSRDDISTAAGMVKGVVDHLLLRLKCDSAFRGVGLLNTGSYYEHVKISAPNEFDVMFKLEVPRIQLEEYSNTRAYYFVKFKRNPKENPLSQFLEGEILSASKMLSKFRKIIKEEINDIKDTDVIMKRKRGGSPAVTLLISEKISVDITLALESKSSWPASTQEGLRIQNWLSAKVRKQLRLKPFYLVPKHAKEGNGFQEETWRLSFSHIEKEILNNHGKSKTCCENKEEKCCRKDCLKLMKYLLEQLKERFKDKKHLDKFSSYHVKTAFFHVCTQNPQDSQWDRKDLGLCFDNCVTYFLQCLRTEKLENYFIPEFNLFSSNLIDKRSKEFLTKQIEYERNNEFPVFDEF
Procedure: (§2) Cell-free mouse and human cGAS enzyme inhibition assay (Table 2). Activity of all compounds (in Table 1) against m-cGAS (30 nM) and or h-cGAS, (100 nM) was determined by measuring the conversion of ATP and GTP (100 μM each) to cGAMP in the presence of dsDNA (5 ug/mL) in a reaction buffer composed of Tris-HCl (20 mM, pH7.4), NaCl (150 mM), MnCl2 (0.2 mM, h-cGAS) or MgCl2 (5 mM, m-cGAS) and Tween-20 (0.01%), and the remaining ATP concentration using Kinase-Glo®Max Luminescent Kinase Assay (Promega, Madison, WI), as described (Lama, et. al., 2019). Briefly, 10 μl of a master mix of 0.4 mM ATP, 0.4 mM GTP, 0.02 mg/mL dsDNA in the reaction buffer supplemented with 2 mM DTT was added to reaction wells containing TDI-6570 or TDI-8246 (2× of the desired concentration) in the same buffer ([…]) using a Thermo 8-channel Multidrop Combi dispenser. Next, 10 μl of a 4×m-cGAS (0.120 μM) or h-cGAS (0.4 μM) solution in the reaction buffer supplemented with 2 mM DTT was added to appropriate wells. Similar sets of reactions without cGAS or the inhibitor was set by adding the buffer alone. The reactions with the plates sealed were incubated at 37° C. (1 hour for m-cGAS and 3 hours for h-cGAS) and stopped by addition of 40 μl of the Kinase-Glo®Max. The luminescence was recorded in relative light units (RLUs) using a Biotek Synergy H1 Hybrid plate reader (BioTek, Winooski, VT). […] All reactions were run in triplicates and calculated using GraphPad Prism 9. The values represent mean IC50±S.D.

[4] = target: m-cGAS (Mus musculus, UniProt Q8C6L5); assay: Cell-free mouse cGAS enzyme inhibition assay (ATP depletion, Kinase-Glo Max); assay type: biochemical; conditions: 1 h; for inhibition at 10 µM: read-out: m-cGAS, conc. 10 μM
m-cGAS, sequence (Q8C6L5 whole entry): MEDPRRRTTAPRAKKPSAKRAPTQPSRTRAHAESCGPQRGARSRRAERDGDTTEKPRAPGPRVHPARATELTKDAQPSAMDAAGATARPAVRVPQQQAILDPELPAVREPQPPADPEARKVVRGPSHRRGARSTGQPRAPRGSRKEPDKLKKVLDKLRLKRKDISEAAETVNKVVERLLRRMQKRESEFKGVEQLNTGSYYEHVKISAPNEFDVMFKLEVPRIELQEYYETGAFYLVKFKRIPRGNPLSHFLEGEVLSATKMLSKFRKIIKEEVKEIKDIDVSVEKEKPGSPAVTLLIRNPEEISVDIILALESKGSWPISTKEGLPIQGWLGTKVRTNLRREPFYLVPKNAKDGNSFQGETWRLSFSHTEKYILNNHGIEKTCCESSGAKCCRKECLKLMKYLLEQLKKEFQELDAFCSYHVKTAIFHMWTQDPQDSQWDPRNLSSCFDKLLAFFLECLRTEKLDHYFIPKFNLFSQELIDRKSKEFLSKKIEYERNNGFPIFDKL
Procedure: as §2

[5] = test system: NFkB-SEAP; assay: THP1-Dual cells transfected with DNA, nfkb expression (Quantiblue); assay type: cell-based; conditions: Homo sapiens; for inhibition at 10 µM: THP-1, 10 μM; for inhibition at 30 µM: THP-1, 30 μM
Procedure: as §1

Structure (SMILES)	inhibition at 1 µM [3] [%]	inhibition at 10 µM [3] [%]	inhibition at 10 µM [4] [%]	inhibition at 1 µM ([4]; read-out: m-cGAS, conc. 1 μM) [%]	Cell viability 10 μM [1]	Cell viability 30 μM [1]	inhibition at 10 µM [2] [%]	inhibition at 30 µM [2] [%]	inhibition at 10 µM [5] [%]	inhibition at 30 µM [5] [%]
Cn1c2c(c3c(O)cc(Cl)c(F)c31)CN(C(=O)CO)CC2 [Compound 1, 1-(7-chloro-6-fluoro-9-hydroxy-5-methyl-3,4-dihydro-1H-pyrido[4,3-b]indol-2-yl)-2-hydroxy-ethanone]	0 to 24	75 to 100	75 to 100	–	+++ (+, ++, and +++ mean the compound respectively shows 25-49%; 50-74%; or 75-100% viability to cells)	+++ (+, ++, and +++ mean the compound respectively shows 25-49%; 50-74%; or 75-100% viability to cells)	< 24	< 24	< 24	< 24
CC(O)C(=O)N1CCc2c(c3c(-c4ccn(C)n4)cc(Cl)c(Cl)c3n2C)C1 (stereo not shown) [Compound 4]	25 to 49	75 to 100	0 to 24	–	+++ (+, ++, and +++ mean the compound respectively shows 25-49%; 50-74%; or 75-100% viability to cells)	+++ (+, ++, and +++ mean the compound respectively shows 25-49%; 50-74%; or 75-100% viability to cells)	< 24	50 to 74	< 24	25 to 49
Cn1ccc(-c2cc(Cl)c(Cl)c3c2c2c(n3C)CCN(C(=O)C(C)(C)O)C2)n1 [Compound 5]	25 to 49	75 to 100	0 to 24	–	+++ (+, ++, and +++ mean the compound respectively shows 25-49%; 50-74%; or 75-100% viability to cells)	+++ (+, ++, and +++ mean the compound respectively shows 25-49%; 50-74%; or 75-100% viability to cells)	< 24	< 24	< 24	< 24
Cn1c2c(c3c(Br)cc(Cl)c(Cl)c31)CN(C(=O)CN)CC2 [Compound 6]	0 to 24	75 to 100	75 to 100	–	+++ (+, ++, and +++ mean the compound respectively shows 25-49%; 50-74%; or 75-100% viability to cells)	+++ (+, ++, and +++ mean the compound respectively shows 25-49%; 50-74%; or 75-100% viability to cells)	< 24	< 24	< 24	25 to 49
CN1c2c(Cl)c(Cl)cc(-c3cncnc3)c2C2CN(C(=O)CN)CCC21 (stereo not shown) [Compound 9]	50 to 74	75 to 100	0 to 24	–	+++ (+, ++, and +++ mean the compound respectively shows 25-49%; 50-74%; or 75-100% viability to cells)	+++ (+, ++, and +++ mean the compound respectively shows 25-49%; 50-74%; or 75-100% viability to cells)	< 24	< 24	< 24	< 24
Cn1cc(-c2cc(Cl)c(Cl)c3c2c2c(n3C)CCN(C(=O)CNC(=O)OC(C)(C)C)C2)cn1 [Compound 10]	–	75 to 100	0 to 24	–	+++ (+, ++, and +++ mean the compound respectively shows 25-49%; 50-74%; or 75-100% viability to cells)	+++ (+, ++, and +++ mean the compound respectively shows 25-49%; 50-74%; or 75-100% viability to cells)	< 24	75 to 100	< 24	50 to 74
CN1c2c(Cl)c(Cl)cc(-c3cnn(C)c3)c2C2CN(C(=O)CN)CCC21 (stereo not shown) [Compound 12]	0 to 24	75 to 100	0 to 24	–	+++ (+, ++, and +++ mean the compound respectively shows 25-49%; 50-74%; or 75-100% viability to cells)	–	< 24	–	< 24	–

Continued, in another order:

inhibition at 1 µM [3] [%]	inhibition at 10 µM [3] [%]	inhibition at 10 µM [4] [%]	inhibition at 1 µM ([4]; read-out: m-cGAS, conc. 1 μM) [%]	Structure (SMILES)	Cell viability 10 μM [1]	Cell viability 30 μM [1]	inhibition at 10 µM [2] [%]	inhibition at 30 µM [2] [%]	inhibition at 10 µM [5] [%]	inhibition at 30 µM [5] [%]
50 to 74	75 to 100	75 to 100	75 to 100	O=C(CO)N1CCc2[nH]c3c(Cl)c(Cl)cc(O)c3c2C1 [Compound 3]	+++ (+, ++, and +++ mean the compound respectively shows 25-49%; 50-74%; or 75-100% viability to cells)	+++ (+, ++, and +++ mean the compound respectively shows 25-49%; 50-74%; or 75-100% viability to cells)	< 24	–	< 24	< 24
50 to 74	75 to 100	0 to 24	–	Cn1c2c(c3c(-c4cncnc4)cc(Cl)c(Cl)c31)CN(C(=O)CN)CC2 [Compound 8]	+++ (+, ++, and +++ mean the compound respectively shows 25-49%; 50-74%; or 75-100% viability to cells)	− (Cell viability <24%, in THP1 cells is expressed as “−”)	50 to 74	75 to 100	25 to 49	50 to 74
–	75 to 100	0 to 24	–	Nc1ccc(-c2cc(Cl)c(Cl)c3[nH]c4c(c23)CN(C(=O)[C@@H]2CCCN2)CC4)cn1 [Compound 16]	+++ (+, ++, and +++ mean the compound respectively shows 25-49%; 50-74%; or 75-100% viability to cells)	+ (+, ++, and +++ mean the compound respectively shows 25-49%; 50-74%; or 75-100% viability to cells)	75 to 100	75 to 100	75 to 100	75 to 100
25 to 49	75 to 100	0 to 24	–	Cn1c2c(c3c(-c4ccc(N)nc4)cc(Cl)c(Cl)c31)CN(C(=O)C1CCCN1)CC2 (stereo not shown) [Compound 17]	+++ (+, ++, and +++ mean the compound respectively shows 25-49%; 50-74%; or 75-100% viability to cells)	++ (+, ++, and +++ mean the compound respectively shows 25-49%; 50-74%; or 75-100% viability to cells)	25 to 49	75 to 100	25 to 49	75 to 100
25 to 49	75 to 100	0 to 24	–	CC(C)(N)C(=O)N1CCc2[nH]c3c(Cl)c(Cl)cc(-c4cc[nH]n4)c3c2C1 [Compound 20]	+++ (+, ++, and +++ mean the compound respectively shows 25-49%; 50-74%; or 75-100% viability to cells)	+++ (+, ++, and +++ mean the compound respectively shows 25-49%; 50-74%; or 75-100% viability to cells)	50 to 74	75 to 100	75 to 100	75 to 100
